Test results taken from US10576085B2, “Substituted aminopurine compounds, compositions thereof, and methods of treatment therewith” (Signal Pharmaceuticals, LLC, priority 2016, dated 2020).

System: cancer cell lines of Table 2
Test: Multiplexed cytotoxicity assay: apoptosis (activated caspase-3; Cal_X2, Cal_X5, Max_Fold_Change)
Type: cell-based
Procedure: Cells are grown in RPMI1640, 10% FBS, 2 mM L-alanyl-L-Glutamine, 1 mM Na pyruvate or a special medium in a humidified atmosphere of 5% CO2 at 37° C. Cells are seeded into 384-well plates and incubated in a humidified atmosphere of 5% CO2 at 37° C. Compounds are added 24 h post cell seeding. At the same time, a time zero untreated cell plate is generated. After a 72 hour incubation period, cells are fixed and stained with fluorescently labeled antibodies and nuclear dye to allow visualization of nuclei, apoptotic cells and mitotic cells. Apoptotic cells are detected using an anti-active caspase-3 antibody. Mitotic cells are detected using an anti phospho-histone-3 antibody. Compounds are serially diluted 3.16-fold and assayed over 10 concentrations in a final assay concentration of 0.1% DMSO from the highest test concentration of 10 μM. Automated fluorescence microscopy was carried out using a Molecular Devices ImageXpress Micro XL high-content imager, and images are collected with a 4× objective.
The activated caspase-3 marker labels cells from early to late stage apoptosis. Concentrations of test compound that cause a 5-fold induction in the caspase-3 signal (Cal_X5) indicate significant apoptosis induction. The maximal induction of caspase 3 by compound in comparison with DMSO control is reported as Max_Fold_Change.
In Another Experiment, Cells were Grown in RPMI1640, 10% FBS, 2 mM L-alanyl-L-Glutamine, 1 mM Na pyruvate or a special medium in a humidified atmosphere of 5% CO2 at 37° C. Cells were seeded into 384-well plates and incubated in a humidified atmosphere of 5% CO2 at 37° C. Compounds were added 24 h post cell seeding. At the same time, a time zero untreated cell plate was generated. After a 72 hour incubation period, cells were fixed and stained with fluorescently labeled antibodies and nuclear dye to allow visualization of nuclei, apoptotic cells and mitotic cells. Apoptotic cells were detected using an anti-active caspase-3 antibody. Mitotic cells were detected using an anti phospho-histone-3 antibody. Compounds were serially diluted 3.16-fold and assayed over 10 concentrations in a final assay concentration of 0.1% DMSO from the highest test concentration of 10 μM. Automated fluorescence microscopy was carried out using a Molecular Devices ImageXpress Micro XL high-content imager, and images were collected with a 4× objective.
The activated caspase-3 marker labels cells from early to late stage apoptosis. Concentrations of test compound that cause a 2-fold (Cal-X2) or 5-fold induction in the caspase-3 signal (Cal_X5) indicated significant apoptosis induction. The maximal induction of caspase 3 by compound in comparison with DMSO control was reported as Max_Fold_Change.

C[C@]1(C(N)=O)CC[C@@H](n2c(Nc3c(Cl)cc(Cl)cc3Cl)nc3cnc(N[C@@H]4CCOC[C@H]4F)nc32)CC1 [Compound 1, cis-4-[2-{[(3S,4R)-3-fluorooxan-4-yl]amino}-8-(2,4,6-trichloroanilino)-9H-purin-9-yl]-1-methyl cyclohexane-1-carboxamide]
CalX2 (639V, Bladder): 0.0841 µM | CalX5 (639V, Bladder): 0.465 µM | Max fold change (639V, Bladder): 6.33 | CalX2 (647V, Bladder): 2.7413 µM | CalX5 (647V, Bladder): 4.45 µM | Max fold change (647V, Bladder): 19.29 | CalX2 (769P, Kidney): 0.2023 µM | CalX5 (769P, Kidney): 5.11 µM | Max fold change (769P, Kidney): 5.67 | CalX2 (786O, Kidney): 10 µM | CalX5 (786O, Kidney): 10 µM | Max fold change (786O, Kidney): 0.83 | CalX2 (A7, Skin, Melanoma): 5.0814 µM | CalX5 (A7, Skin, Melanoma): 9.4 µM | Max fold change (A7, Skin, Melanoma): 5.51 | CalX2 (A101D, Skin, Melanoma): 0.4207 µM | CalX5 (A101D, Skin, Melanoma): 3.71 µM | Max fold change (A101D, Skin, Melanoma): 7.93 | CalX2 (A375, Skin, Melanoma): 0.0673 µM | CalX5 (A375, Skin, Melanoma): 0.0827 µM | Max fold change (A375, Skin, Melanoma): 103.79 | CalX2 (A498, Kidney): 0.5562 µM | CalX5 (A498, Kidney): 10 µM | Max fold change (A498, Kidney): 4.72 | CalX2 (A704, Kidney): 10 µM | CalX5 (A704, Kidney): 10 µM | Max fold change (A704, Kidney): 0.96 | CalX2 (A2058, Skin, Melanoma): 0.065 µM | CalX5 (A2058, Skin, Melanoma): 0.204 µM | Max fold change (A2058, Skin, Melanoma): 11.68 | CalX2 (ACHN, Kidney): 0.78 µM | CalX5 (ACHN, Kidney): 10 µM | Max fold change (ACHN, Kidney): 2.97 | CalX2 (AU565, Breast): 3.8749 µM | CalX5 (AU565, Breast): 7.14 µM | Max fold change (AU565, Breast): 14.18 | CalX2 (BC1, Lymphoma): 5.1005 µM | CalX5 (BC1, Lymphoma): 6.54 µM | Max fold change (BC1, Lymphoma): 8.72 | CalX2 (BCP1, Lymphoma): 4.8663 µM | CalX5 (BCP1, Lymphoma): 7.36 µM | Max fold change (BCP1, Lymphoma): 6.56 | CalX2 (BFTC905, Bladder): 0.0179 µM | CalX5 (BFTC905, Bladder): 0.0414 µM | Max fold change (BFTC905, Bladder): 45.3 | CalX2 (BT20, Breast): 10 µM | CalX5 (BT20, Breast): 10 µM | Max fold change (BT20, Breast): 1.81 | CalX2 (BT474, Breast): 10 µM | CalX5 (BT474, Breast): 10 µM | Max fold change (BT474, Breast): 0.94 | CalX2 (BV173, Leukemia): 0.4959 µM | CalX5 (BV173, Leukemia): 10 µM | Max fold change (BV173, Leukemia): 2.91 | CalX2 (C32, Skin, Melanoma): 0.0451 µM | CalX5 (C32, Skin, Melanoma): 0.0778 µM | Max fold change (C32, Skin, Melanoma): 110.9 | CalX2 (C32TG, Skin, Melanoma): 0.0608 µM | CalX5 (C32TG, Skin, Melanoma): 0.117 µM | Max fold change (C32TG, Skin, Melanoma): 42.82 | CalX2 (CA46, Lymphoma): 3.2395 µM | CalX5 (CA46, Lymphoma): 8.08 µM | Max fold change (CA46, Lymphoma): 9.46 | CalX2 (CAKI1, Kidney): 0.2015 µM | CalX5 (CAKI1, Kidney): 10 µM | Max fold change (CAKI1, Kidney): 4.12 | CalX2 (CAKI2, Kidney): 0.1631 µM | CalX5 (CAKI2, Kidney): 0.449 µM | Max fold change (CAKI2, Kidney): 6.26 | CalX2 (CCRFCEM, Leukemia): 3.4279 µM | CalX5 (CCRFCEM, Leukemia): 6.95 µM | Max fold change (CCRFCEM, Leukemia): 12.74 | CalX2 (CEMC1, Leukemia): 4.1828 µM | CalX5 (CEMC1, Leukemia): 5.22 µM | Max fold change (CEMC1, Leukemia): 11.27 | CalX2 (CHL1, Skin, Melanoma): 1.2376 µM | CalX5 (CHL1, Skin, Melanoma): 10 µM | Max fold change (CHL1, Skin, Melanoma): 3.46 | CalX2 (CMLT1, Leukemia): 0.0948 µM | CalX5 (CMLT1, Leukemia): 10 µM | Max fold change (CMLT1, Leukemia): 4.85 | CalX2 (COLO829, Skin, Melanoma): 0.0421 µM | CalX5 (COLO829, Skin, Melanoma): 0.125 µM | Max fold change (COLO829, Skin, Melanoma): 24.28 | CalX2 (CROAP2, Lymphoma): 2.9603 µM | CalX5 (CROAP2, Lymphoma): 4.2 µM | Max fold change (CROAP2, Lymphoma): 50.79 | CalX2 (D283MED, CNS, Medulloblastoma): 8.3456 µM | CalX5 (D283MED, CNS, Medulloblastoma): 10 µM | Max fold change (D283MED, CNS, Medulloblastoma): 2.23 | CalX2 (D341MED, CNS, Medulloblastoma): 7.7855 µM | CalX5 (D341MED, CNS, Medulloblastoma): 10 µM | Max fold change (D341MED, CNS, Medulloblastoma): 2.14 | CalX2 (DAOY, CNS, Medulloblastoma): 3.2773 µM | CalX5 (DAOY, CNS, Medulloblastoma): 5.22 µM | Max fold change (DAOY, CNS, Medulloblastoma): 16.68 | CalX2 (DAUDI, Lymphoma): 3.9392 µM | CalX5 (DAUDI, Lymphoma): 5.33 µM | Max fold change (DAUDI, Lymphoma): 10.08 | CalX2 (DB, Lymphoma): 6.1153 µM | CalX5 (DB, Lymphoma): 6.5 µM | Max fold change (DB, Lymphoma): 7.11 | CalX2 (DOHH2, Lymphoma): 2.4833 µM | CalX5 (DOHH2, Lymphoma): 3.99 µM | Max fold change (DOHH2, Lymphoma): 20.41 | CalX2 (EB2, Lymphoma): 5.7381 µM | CalX5 (EB2, Lymphoma): 10 µM | Max fold change (EB2, Lymphoma): 4.16 | CalX2 (EB3, Lymphoma): 6.1469 µM | CalX5 (EB3, Lymphoma): 7.66 µM | Max fold change (EB3, Lymphoma): 5.5 | CalX2 (EM2, Leukemia): 10 µM | CalX5 (EM2, Leukemia): 10 µM | Max fold change (EM2, Leukemia): 1.55 | CalX2 (G361, Skin, Melanoma): 0.0428 µM | CalX5 (G361, Skin, Melanoma): 0.12 µM | Max fold change (G361, Skin, Melanoma): 24.48 | CalX2 (G401, Kidney): 0.0717 µM | CalX5 (G401, Kidney): 0.179 µM | Max fold change (G401, Kidney): 30.87 | CalX2 (G402, Kidney): 0.0162 µM | CalX5 (G402, Kidney): 0.637 µM | Max fold change (G402, Kidney): 7.34 | CalX2 (GA10, Lymphoma): 0.6477 µM | CalX5 (GA10, Lymphoma): 1.94 µM | Max fold change (GA10, Lymphoma): 6.49 | CalX2 (H9, Lymphoma): 0.0222 µM | CalX5 (H9, Lymphoma): 0.4 µM | Max fold change (H9, Lymphoma): 7.33 | CalX2 (HEL9217, Leukemia): 3.2991 µM | CalX5 (HEL9217, Leukemia): 6.57 µM | Max fold change (HEL9217, Leukemia): 6.23 | CalX2 (HEPG2, Liver): 0.0041 µM | CalX5 (HEPG2, Liver): 0.0108 µM | Max fold change (HEPG2, Liver): 62.47 | CalX2 (HLE, Liver): 0.8174 µM | CalX5 (HLE, Liver): 10 µM | Max fold change (HLE, Liver): 2.5 | CalX2 (HLF, Liver): 10 µM | CalX5 (HLF, Liver): 10 µM | Max fold change (HLF, Liver): 1.95 | CalX2 (HMCB, Skin, Melanoma): 10 µM | CalX5 (HMCB, Skin, Melanoma): 10 µM | Max fold change (HMCB, Skin, Melanoma): 1.8 | CalX2 (HS294T, Skin, Melanoma): 0.154 µM | CalX5 (HS294T, Skin, Melanoma): 2.15 µM | Max fold change (HS294T, Skin, Melanoma): 5.74 | CalX2 (HS445, Lymphoma): 4.9128 µM | CalX5 (HS445, Lymphoma): 7.7 µM | Max fold change (HS445, Lymphoma): 5.65
